Earlier results on 1 molecule are cited in article PMC9127185, “A Pyridazinone Compound for Effectively Treating Non-alcoholic Steatohepatitis by Targeting THRβ” (Frontiers in Chemistry, 2022).

Details of this data set: method as in Harrison et al., 2019. The following applies: ref Harrison et al., 2019; cited from earlier work.

As for `CC(C)c1cc(Oc2c(Cl)cc(-n3nc(C#N)c(=O)[nH]c3=O)cc2Cl)n[nH]c1=O` [resmetirom, 2-[3,5-Dichloro-4-(5-Isopropyl-6-Oxo-1,6-Dihydropyridazin-3-Yloxy)phenyl]-3,5-Dioxo-2,3,4,5-Tetrahydro[1,2,4]triazine-6-Carbonitrile], the Distribution entry is listed as “liver-specific distribution”; the “Effect on low density lipoprotein and triglyceride” value was “reduced both low density lipoprotein and triglyceride effectively”.
